# Results reported in US20130059814A1, “ANTI-INFLAMMATORY DERMATOLOGICAL COMPOSITION COMPRISING CORTICOSTEROIDS AND HYALURONATE FRAGMENTS, AND USES THEREOF” (priority 2007, published 2013).
# Legend:
# Hairless SKH mice = assay: Skin atrophy protocol: dermis-epidermis thickness after topical corticosteroid with or without HA fragments; type: in vivo
# From the text: Hairless SKH mice received twice daily for 5 days a topical treatment on the back with a steroid (0.05% clobetasol propionate or 0.1% desonide) with or without HA fragments (with a molecular weight comprised between 20 and 500 kDa, and obtained by the method including the treatment steps with ultrasound and filtering as described above). These fragments will be designated in the following examples by HAF. Dermal and epidermal atrophy and the concentration of skin hyaluronate were respectively determined by measuring the dermis-epidermis thickness in optical microscopy and by ELISA.
# The epidermal and cutaneous (distance between the granular layer and the sweating glands) thicknesses were measured by an ocular micrometer. Ten measurements were made per mouse. The prevention index is the ratio between the control treated with clobetasol propionate (PC) alone and the PC +HAF composition.
# The epidermal thickness was measured with an ocular micrometer after treatment with different desonide concentrations. Ten measurements were made per mouse. The prevention index is the ratio, at a determined corticosteroid concentration, between the control treated by the corticosteroid alone and by the corticosteroid composition+HAF.
# The epidermal thickness was measured with an ocular micrometer after treatment with different corticosteroids. Ten measurements were made per mouse. The prevention index is the ratio between the control treated by the corticosteroid alone and the corresponding composition comprising the HAFs.
# The non-treated hyaluronic acid, the fragments obtained by action of hyaluronidase, as well as the HAFs were compared for their preventive effects. The epidermal thickness was measured with an ocular micrometer. Ten measurements were made per mouse. The prevention index is the ratio between the control treated with the corticosteroid alone and with each corticosteroid composition+HAF.
# myeloperoxidase = assay: Myeloperoxidase activity in supernatant of homogenates of TPA-treated ear biopsies; type: in vivo, mice; conditions: 0.005% TPA on ears, PC 0.05%, HAF 1%, 4 days
# Description: (§1) Skin inflammation was induced by topical application of 0.005% TPA (12-o-tetradecanoylphorbol-13-acetate) in acetone, on the ears of C57B1/6 mice; the control animals received the same volume of acetone. Clobetasol propionate (0.05%) and the HAFs (1%) were dissolved in 100 μL of carrier, and were applied together with TPA for 4 days; the control animals received the same volume of carrier. The inflammation was determined by measuring the thickness of the ears with a clip and the dermis-epidermis thickness in optical microscopy and by assaying myeloperoxidase activity. The animals were sacrificed 24 hrs after the last application. 6 mm biopsies were sampled, frozen in liquid nitrogen and then stored at −70° C. until the day of the analysis. The remainder of the tissue was set with formol and analyzed by immunohistology.
# The myeloperoxidase activity was determined in the supernatant of the homogenates of the ear biopsies. […] The enzymatic activity of myeloperoxidase was determined according to the method of Bradley et al., modified for using the photometric plate reader. […] The optical density was measured at 450 nm. […] The expression of CD44, CD44v3 and pro-HB-EGF was analyzed by immunohistochemistry and by Western blotting according to methods already described (PLoS Med 3 (12): e493, 2006). […]
# C57B1/6 mice = assay: Inflammation induced by TPA in the ear of mice: epidermis and dermis thickness, dermal cellularity; type: in vivo; conditions: 0.005% TPA on ears, PC 0.05%, HAF 1%, 4 days
# Description: as §1
# The epidermal inflammation induced by the application of Phorbol TPA ester was measured, after application of TPA, and then after treatment with clobetasol propionate, and after treatment with the composition comprising clobetasol propionate and HAFs. Ten measurements were made per mouse. The anti-inflammation index is the ratio between the control treated with TPA, and with the composition TPA+PC or TPA+PC+HAF.
# The dermal inflammation induced by applying Phorbol TPA ester was measured, after application of TPA, and then after treatment with clobetasol propionate and after treatment with the composition comprising clobetasol propionate and HAFs. Ten measurements were made per mouse, the results are grouped in the Table 6 below. The anti-inflammation index in the ratio between the control treated with TPA, and with the association TPA+PC or TPA+PC+HAF.
# Dermal cellularity induced by applying Phorbol TPA ester was measured, after application of TPA, and then after treatment with clobetasol propionate, and after treatment with the composition comprising clobetasol propionate and HAFs. Ten measurements were made per mouse. The anti-inflammation index is the ratio between the control treated with TPA, and with the association TPA+PC or TPA+PC+HAF.
# hairless SKH1 mice = conditions: JEADV 19: 124, 2005; cited from earlier work
# [1] = Table 3: corticosteroid 0.05%, with or without HAF
structure (smiles),measurement,setting,value
C[C@H]1C[C@H]2[C@@H]3CCC4=CC(=O)C=C[C@]4(C)[C@@]3(F)[C@@H](O)C[C@]2(C)[C@@]1(O)C(=O)CO [Betamethasone],Epidermal thickness % of non-treated control,Hairless SKH mice; [1],53 % of non-treated control
"CC1(C)O[C@@H]2C[C@H]3[C@@H]4CCC5=CC(=O)C=C[C@]5(C)[C@H]4[C@@H](O)C[C@]3(C)[C@]2(C(=O)CO)O1 [Desonide, desonide]",Epidermal thickness % of non-treated control,"Hairless SKH mice; Desonide 0.025%, HAF 0 or 1%",72 % of non-treated control
same,Epidermal thickness % of non-treated control,"Hairless SKH mice; Desonide 0.05%, HAF 0 or 1%",62 % of non-treated control
same,Epidermal thickness % of non-treated control,"Hairless SKH mice; Desonide 0.075%, HAF 0",55 % of non-treated control
same,Epidermal thickness % of non-treated control,"Hairless SKH mice; Desonide 0.1%, HAF 0 or 1%",46 % of non-treated control
same,Epidermal thickness % of non-treated control,Hairless SKH mice; [1],62 % of non-treated control
same,Epidermal thickness % of non-treated control,Hairless SKH mice; Table 4: Desonide 0.1% alone or with HA form,46 % of non-treated control
"CCC(=O)O[C@]1(C(=O)CCl)[C@@H](C)C[C@H]2[C@@H]3CCC4=CC(=O)C=C[C@]4(C)[C@@]3(F)[C@@H](O)C[C@@]21C [PC, clobetasol propionate]",Cutaneous thickness % of non-treated control,"Hairless SKH mice; PC 0.05%, HAF 1% where present, distance between granular layer and sweating glands",56 % of non-treated control
same,Epidermal thickness % of non-treated control,"Hairless SKH mice; PC 0.05%, HAF 1% where present, topical on the back twice daily for 5 days",33 % of non-treated control
same,Epidermal thickness % of non-treated control,Hairless SKH mice; [1],28 % of non-treated control
same,Epidermal thickness % of non-treated control,Hairless SKH mice; Table 4: 0.05% Clobetasol alone or with HA form,28 % of non-treated control
"CCCCCCCCCCCCCC(=O)O[C@@H]1[C@@H](C)[C@@]2(O)[C@@H](C=C(CO)C[C@]3(O)C(=O)C(C)=C[C@@H]23)[C@@H]2C(C)(C)[C@]12OC(C)=O [TPA, 12-o-tetradecanoylphorbol-13-acetate]",myeloperoxidase % of control,myeloperoxidase,3273 % of control
same,Dermal cellularity % of control,C57B1/6 mice,789 % of control
same,Dermis inflammation % of non-treated control,C57B1/6 mice,226 % of non-treated control
same,Epidermis inflammation % of control,C57B1/6 mice,438 % of control
CC1=C(/C=C/C(C)=C/C=C/C(C)=C/C=O)C(C)(C)CCC1 [retinaldehyde],Prevention of epidermal atrophy induced by clobetasol propionate,hairless SKH1 mice,"prevents epidermal atrophy induced by a corticosteroid, clobetasol propionate"
